In the oligonucleotide strings, read from the 5' end, every base follows the letter of its sugar. An asterisk marks phosphorothioate; unmarked linkages are phosphodiester. Other units and linkages are bracketed, terminal groups are in braces. A string of capitals states the bases alone. {NAG37} = tridentate N-acetyl-galactosamine targeting ligand, structure (NAG37)s; [invAb] = inverted abasic unit; m = 2'-O-methyl; f = 2'-fluoro
Legend:
ANGPTL3 protein = experiment: Example 3: serum ANGPTL3 protein by ELISA in mice; format: in vivo, C57bl/6 mice; settings: for Avg ANGPTL3 (Average ANGPTL3 Protein Normalized to Pre-Treatment and Control): 1.0 mg/kg single subcutaneous dose on day 1, serum, female C57bl/6 mice
Method: (§1) To assess the in vivo activity of ANGPTL3 RNAi agents that are designed to target positions 921 and 922 on the ANGPTL3 gene, six- to eight-week-old female C57bl/6 mice were used. Pre-dose serum samples were taken at day −1 after a four hour fast. At day 1, each mouse was given a single subcutaneous administration of 200 μl containing either 1 mg/kg (mpk) of an ANGPTL3 RNAi agent in D5W (dextrose in 5% water), or control (D5W) with no RNAi agent, according to the dosing groups recited in Table 12.
(§2) Each of the RNAi agents included a modified sequence and an N-acetyl-galactosamine-containing targeting ligand conjugated to the 5′ terminal end of the sense strand. (See Tables 3, 4, and 5 for modified sequences and targeting ligand structures). The injections were performed between the skin and muscle (i.e. subcutaneous injections) into the loose skin over the neck and shoulder area. Three (3) mice in each group were tested (n=3). […] Mice were fasted for four hours prior to each collection. ANGPTL3 protein levels in serum were measured by ELISA assay (R&D Systems), according to the manufacturer's recommendations. Triglycerides, high-density lipoprotein (HDL), and total cholesterol in serum were measured on a Cobas® Integra 400 (Roche Diagnostics), according to the manufacturer's recommendations.
(§3) The ANGPTL3 protein levels, triglyceride levels, HDL levels, and total cholesterol levels for each animal were normalized. For normalization, the level of ANGPTL3 protein, triglyceride, HDL, and total cholesterol, respectively, for each animal at a time point, was divided by the pre-treatment level of expression in that animal (in this case at day −1) to determine the ratio of expression “normalized to pre-treatment.” Expression at a specific time point was then normalized to the D5W control group by dividing the “normalized to pre-treatment” ratio for an individual animal by the mean “normalized to pretreatment” ratio of all mice in the D5W control group.

ANGPTL3 gene [1] = experiment: Example 3: serum triglycerides in mice; format: in vivo
Method: as §1, §2, §3

ANGPTL3 gene [2] = experiment: Example 3: serum total cholesterol in mice; format: in vivo
Method: as §1, §2, §3

ANGPTL3 gene [3] = experiment: Example 3: serum HDL in mice; format: in vivo
Method: as §1, §2, §3

ANGPTL3 gene [4] = experiment: Example 4: serum total cholesterol in mice; format: in vivo, C57bl/6 mice
Method: as §1, with “target additional” for “target”, “positions” for “positions 921 and 922”, “(mpk) or 0.5 mg/kg (mpk)” for “(mpk)”, “17.” for “12.”
Each of the RNAi agents included a modified sequence and an N-acetyl-galactosamine-containing targeting ligand conjugated to the 5′ terminal end of the sense strand. (See Tables 3, 4, and 5 for modified sequences and targeting ligand structures). The injections were performed between the skin and muscle (i.e. subcutaneous injections) into the loose skin over the neck and shoulder area. Three (3) mice in each group were tested (n=3). Serum was collected on days 8, 15, 22, 29, and day 43 (Groups 1-3, 9, and 11-13 only). Mice were fasted for four hours prior to each collection. ANGPTL3 protein levels in serum were measured by ELISA assay (R&D Systems), according to the manufacturer's recommendations. Triglycerides, high-density lipoprotein (HDL), and total cholesterol in serum were measured on a Cobas® Integra 400 (Roche Diagnostics), according to the manufacturer's recommendations.
as §3

ANGPTL3 gene [5] = experiment: Example 7: serum total cholesterol in mice; format: in vivo, C57bl/6 mice; design: key: ratio: (level/pre-treatment day -1 level) ÷ mean of D5W control group
Outline: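 Female C57bl/6 mice (6–8 weeks, n=3) received a single subcutaneous dose of 0.5 mg/kg GalNAc-conjugated RNAi agent or D5W vehicle. Serum was taken after a 4 h fast at day −1 and days 8, 15, 22 and 29. ANGPTL3 was measured by ELISA and lipids by clinical analyzer, each normalised to the animal's pre-dose level and then to the D5W group mean.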

[6] = day 22, single 1 mg/kg subcutaneous, C57bl/6 mice
[7] = Day 8, 1.0 mg/kg single subcutaneous dose on day 1, female C57bl/6 mice
[8] = Day 15, 1.0 mg/kg single subcutaneous dose on day 1, female C57bl/6 mice
[9] = Day 22, 1.0 mg/kg single subcutaneous dose on day 1, female C57bl/6 mice
[10] = Day 29, 1.0 mg/kg single subcutaneous dose on day 1, female C57bl/6 mice
[11] = Day 8, 0.5 mg/kg single SC injection on day 1, n=3
[12] = Day 15, 0.5 mg/kg single SC injection on day 1, n=3
[13] = Day 22, 0.5 mg/kg single SC injection on day 1, n=3
[14] = Day 29, 0.5 mg/kg single SC injection on day 1, n=3

Question: Which results are given for “AD05308: RNAi agent duplex: antisense AM07003-AS, sense AM07002-SS (chain 1 mU*fG*mU*fUmGfAmAfUmUfAmAfUmGfUmCfCmAfUmGfG*mA; chain 2 {NAG37}*[invAb]*mUmCmCmAmUmGmGmAfCfAfUmUmAmAmUmUmCmAmAmCmA*[invAb])”?
Answer: Avg ANGPTL3 (Average ANGPTL3 Protein Normalized to Pre-Treatment and Control) (ANGPTL3 protein; Day 8): 0.196; Avg ANGPTL3 (Average ANGPTL3 Protein Normalized to Pre-Treatment and Control) (ANGPTL3 protein; Day 15): 0.202; Avg ANGPTL3 (Average ANGPTL3 Protein Normalized to Pre-Treatment and Control) (ANGPTL3 protein; Day 22): 0.209; Avg ANGPTL3 (Average ANGPTL3 Protein Normalized to Pre-Treatment and Control) (ANGPTL3 protein; Day 29): 0.309; ANGPTL3 protein normalized to pre-treatment and control (ANGPTL3 protein; [6]): 0.209; reduction in ANGPTL3 protein levels compared to control (ANGPTL3 protein; [6]): ~80%; Avg TG (Average Triglycerides Normalized to Pre-Treatment and Control) (ANGPTL3 gene [1]; [7]): 0.952; Avg TG (Average Triglycerides Normalized to Pre-Treatment and Control) (ANGPTL3 gene [1]; [8]): 0.749; Avg TG (Average Triglycerides Normalized to Pre-Treatment and Control) (ANGPTL3 gene [1]; [9]): 0.854; Avg TG (Average Triglycerides Normalized to Pre-Treatment and Control) (ANGPTL3 gene [1]; [10]): 1.009; Avg Total Chol (Average Total Cholestrol Normalized to Pre-Treatment and Control) (ANGPTL3 gene [2]; [7]): 0.872; Avg Total Chol (Average Total Cholestrol Normalized to Pre-Treatment and Control) (ANGPTL3 gene [2]; [8]): 0.768; Avg Total Chol (Average Total Cholestrol Normalized to Pre-Treatment and Control) (ANGPTL3 gene [2]; [9]): 1.048; Avg Total Chol (Average Total Cholestrol Normalized to Pre-Treatment and Control) (ANGPTL3 gene [2]; [10]): 0.978; Avg HDL (Average HDL Normalized to Pre-Treatment and Control) (ANGPTL3 gene [3]; [7]): 0.838; Avg HDL (Average HDL Normalized to Pre-Treatment and Control) (ANGPTL3 gene [3]; [8]): 0.754; Avg HDL (Average HDL Normalized to Pre-Treatment and Control) (ANGPTL3 gene [3]; [9]): 0.739; Avg HDL (Average HDL Normalized to Pre-Treatment and Control) (ANGPTL3 gene [3]; [10]): 0.953; Avg Total Chol, normalized to pre-treatment and control (ANGPTL3 gene [4]; [11]): 0.992; Avg Total Chol, normalized to pre-treatment and control (ANGPTL3 gene [4]; Day 8, 1.0 mg/kg single SC injection on day 1, n=3): 0.868; Avg Total Chol, normalized to pre-treatment and control (ANGPTL3 gene [4]; [12]): 0.838; Avg Total Chol, normalized to pre-treatment and control (ANGPTL3 gene [4]; Day 15, 1.0 mg/kg single SC injection on day 1, n=3): 0.793; Avg Total Chol, normalized to pre-treatment and control (ANGPTL3 gene [4]; [13]): 1.000; Avg Total Chol, normalized to pre-treatment and control (ANGPTL3 gene [4]; Day 22, 1.0 mg/kg single SC injection on day 1, n=3): 0.770; Avg Total Chol, normalized to pre-treatment and control (ANGPTL3 gene [4]; [14]): 0.958; Avg Total Chol, normalized to pre-treatment and control (ANGPTL3 gene [4]; Day 29, 1.0 mg/kg single SC injection on day 1, n=3): 0.819; Avg Total Chol, normalized to pre-treatment and control (ANGPTL3 gene [4]; Day 43, 0.5 mg/kg single SC injection on day 1, n=3): 1.157; Avg Total Chol, normalized to pre-treatment and control (ANGPTL3 gene [4]; Day 43, 1.0 mg/kg single SC injection on day 1, n=3): 1.073; Avg Total Chol, normalized to pre-treatment and control (ANGPTL3 gene [5]; [11]): 0.756; Avg Total Chol, normalized to pre-treatment and control (ANGPTL3 gene [5]; [12]): 0.814; Avg Total Chol, normalized to pre-treatment and control (ANGPTL3 gene [5]; [13]): 0.896; Avg Total Chol, normalized to pre-treatment and control (ANGPTL3 gene [5]; [14]): 0.927
